Data: patent publication US9359345B2, “Thiazole derivatives as inhibitors of Bruton's tyrosine kinase” (Hoffmann-La Roche Inc., priority 2012, dated 2016)

Molecular target: Bruton's Tyrosine Kinase (BTK), inactivated state (Homo sapiens (Human), UniProt Q06187)
Experiment: Bruton's Tyrosine Kinase (BTK) Inhibition TR-FRET (Time Resolved FRET) competition assay
Format: binding
Conditions: Kinase Tracer 178, BTK-Eu, 18-24 h at 14° C.
Protocol: Bruton's Tyrosine Kinase (BTK) Inhibition TR-FRET (Time Resolved FRET) Assay
This BTK competition assay measures compound potency (IC50) for the inactivated state of Bruton's Tyrosine Kinase using FRET (Forster/Fluorescence Resonance Energy Transfer) technology. The BTK-Eu complex was incubated on ice one hour prior to use at a starting concentration of 50 nM BTK-Bioease™: 10 nM Eu-streptavidin (Perkin-Elmer Catalog# AD0062). The assay buffer consisted of 20 mM HEPES (pH 7.15), 0.1 mM DTT, 10 mM MgCl2, 0.5 mg/ml BSA with 3% Kinase Stabilizer (Fremont Biosolutions, Catalog # STB-K02). After 1 h, the reaction mixture from above was diluted 10 fold in assay buffer to make 5 nM BTK: 1 nM Eu-Streptavidin complex (donor fluorophore). 18 μl of a mixture of 0.11 nM BTK-Eu and 0.11 nM Kinase Tracer 178 (Invitrogen, Catalog # PV5593,) with BTK-Eu alone as no negative control, was then dispensed into 384-well flat bottom plates (Greiner, 784076). Compounds to be tested in assay were prepared as 10× concentrations and serial dilution in half-log increments was performed in DMSO so as to generate 10 point curves. To initiate the FRET reaction, compounds prepared as 10× stock in DMSO was added to the plates and the plates were incubated 18-24 h at 14° C.
After the incubation the plates were read on a BMG Pherastar Fluorescent plate reader (or equivalent) and used to measure the emission energy from the europium donor fluorophore (620 nm emission) and the FRET (665 nm emission). The negative control well values were averaged to obtain the mean minimum. The positive “no inhibitor” control wells were averaged to obtain the mean maximum. Percent of maximal FRET was calculated using following equation: % max FRET=100×[(FSRcmpd−FSRmean min)/(FSRmean max−FSRmean min)] where FSR=FRET Signal ratio. % Max FRET curves were plotted in Activity Base (Excel) and the IC50(%), hill slope, z′ and % CV were determined. The mean IC50 and standard deviation will be derived from duplicate curves (singlet inhibition curves from two independent dilutions) using Microsoft Excel.

Sequence of Bruton's Tyrosine Kinase (BTK), inactivated state (Q06187 whole entry): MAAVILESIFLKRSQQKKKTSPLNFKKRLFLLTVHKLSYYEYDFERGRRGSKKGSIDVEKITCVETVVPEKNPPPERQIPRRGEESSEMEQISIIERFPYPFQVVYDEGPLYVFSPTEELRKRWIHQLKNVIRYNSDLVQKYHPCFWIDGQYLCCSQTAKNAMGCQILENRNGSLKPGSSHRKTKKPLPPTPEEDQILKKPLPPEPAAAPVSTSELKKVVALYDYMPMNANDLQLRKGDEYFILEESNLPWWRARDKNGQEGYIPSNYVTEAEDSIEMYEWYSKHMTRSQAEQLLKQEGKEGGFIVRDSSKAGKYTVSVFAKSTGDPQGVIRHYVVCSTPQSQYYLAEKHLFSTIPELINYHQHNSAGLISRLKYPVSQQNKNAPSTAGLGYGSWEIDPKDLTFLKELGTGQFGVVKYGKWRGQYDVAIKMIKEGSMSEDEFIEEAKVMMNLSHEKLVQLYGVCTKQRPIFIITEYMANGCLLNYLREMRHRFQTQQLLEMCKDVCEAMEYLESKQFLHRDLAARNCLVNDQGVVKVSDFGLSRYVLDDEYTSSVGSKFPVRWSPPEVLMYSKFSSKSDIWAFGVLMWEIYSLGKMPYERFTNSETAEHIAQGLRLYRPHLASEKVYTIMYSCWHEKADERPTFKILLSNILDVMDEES

SMILES | IC50 [µM]
NC(=O)c1nc(N2CCC[C@@H](NC(=O)N3Cc4ccc(Cl)cc4C3)C2)sc1Nc1ccccn1 [Compound 2, 5-Chloro-1,3-dihydro-isoindole-2-carboxylic acid {(R)-1-[4-carbamoyl-5-(pyridin-2-ylamino)-thiazol-2-yl]-piperidin-3-yl}-amide] | 7.74
CC(C)(C)OC(=O)N[C@@H]1CCCN(c2nc(C(N)=O)c(Nc3ccccn3)s2)C1 [Compound 3, {(R)-1-[4-Carbamoyl-5-(pyridin-2-ylamino)-thiazol-2-yl]-piperidin-3-yl}-carbamic acid tert-butyl ester] | 1.21
CC(C)(C)c1ccc(C(=O)N[C@@H]2CCCN(c3nc(C(N)=O)c(Nc4ccccn4)s3)C2)cn1 [Compound 4, 6-tert-Butyl-N-{(R)-1-[4-carbamoyl-5-(pyridin-2-ylamino)-thiazol-2-yl]-piperidin-3-yl}-nicotinamide] | 1.73
NC(=O)c1nc(N2CCC[C@@H](NC(=O)Cc3ccccc3)C2)sc1Nc1ccccn1 [Compound 5, 2-((R)-3-Phenylacetylamino-piperidin-1-yl)-5-(pyridin-2-ylamino)-thiazole-4-carboxylic acid amide] | 6.24
Cc1cccc(CC(=O)N[C@@H]2CCCN(c3nc(C(N)=O)c(Nc4ccccn4)s3)C2)c1 [Compound 6, 5-(Pyridin-2-ylamino)-2-[(R)-3-(2-m-tolyl-acetylamino)-piperidin-1-yl]-thiazole-4-carboxylic acid amide] | 7.51
CC(C)(C)c1ccc(C(=O)N[C@@H]2CCCN(c3nc(C(N)=O)c(Nc4ccccn4)s3)C2)cc1 [Compound 7, 2-[(R)-3-(4-tert-Butyl-benzoylamino)-piperidin-1-yl]-5-(pyridin-2-ylamino)-thiazole-4-carboxylic acid amide] | 0.47
CS(=O)(=O)N[C@@H]1CCCN(c2nc(C(N)=O)c(Nc3ccccn3)s2)C1 [Compound 8, 2-((R)-3-Methanesulfonylamino-piperidin-1-yl)-5-(pyridin-2-ylamino)-thiazole-4-carboxylic acid amide] | 5.07
NC(=O)c1nc(N2CCC[C@@H](NS(=O)(=O)c3ccccc3)C2)sc1Nc1ccccn1 [Compound 9, 2-((R)-3-Benzenesulfonylamino-piperidin-1-yl)-5-(pyridin-2-ylamino)-thiazole-4-carboxylic acid amide] | 1.61
CC(C)S(=O)(=O)N[C@@H]1CCCN(c2nc(C(N)=O)c(Nc3ccccn3)s2)C1 [Compound 10, 2-[(R)-3-(Propane-2-sulfonylamino)-piperidin-1-yl]-5-(pyridin-2-ylamino)-thiazole-4-carboxylic acid amide] | 5.8
CC(=O)N[C@@H]1CCCN(c2nc(C(N)=O)c(Nc3ccccn3)s2)C1 [Compound 12, 2-((R)-3-Acetylamino-piperidin-1-yl)-5-(pyridin-2-ylamino)-thiazole-4-carboxylic acid amide] | 6.03
